Test results reported in patent publication US10989721B2, “Additive channels” (Emulate Inc., priority 2016, dated 2021).
“Also recorded” adds a separate entry of the source. Structures can show the parent of a compound that is named as a salt. Positions of bridges follow the written chain, without caps; N, C: chain ends. Non-standard residues stand in square brackets, D forms with d. Residues, ends and D or L forms follow the SMILES beside them. hArg = N=C(N)NCCCC[C@H](N)C(=O)O; Mpa = O=C(O)CCS

Assays:
Assay type in all cases: cell-based, human
platelets = experiment: Vessel-On-Chip blood perfusion: platelet coverage/aggregation by fluorescence imaging (CD41 label); details: for platelet aggregate formation compared to untreated blood: hu5C8 240 μg/mL, sCD40L 10 ng/ml, alone or combined, 4 donors, 60 μl/minute
Description: (§1) Briefly, human blood was drawn in citrate buffer and used within 4 hours. Platelets were stained using fluorescently labeled non-blocking antibodies for the platelet surface marker CD41 and low dosages of fluorescent fibrinogen were added in order to visualize fibrin deposition. Blood was re-calcified in order to re-establish the full coagulation potential, then introduced in the biomimetic vessel-on-chip from the main inlet (embodiments of inlets shown in FIG. 18A-1, FIG. 18A-2 and FIG. 19C). The outlet of the chip was connected to a pulling syringe pump with a system of tubing and connectors made of medical grade silicon that excludes any metal components or potential causes of platelet activation (FIG. 5A).
(§2) After 14 minutes of perfusion, the flow was interrupted and the chips were immediately imaged via fluorescence microscopy (FIG. 18C and FIG. 19D). In healthy conditions, endothelial cells will provide an antithrombotic surface where blood can flow smoothly, and indeed we detected minimal platelet adhesion or fibrin deposition in our vessel-on-chip after blood perfusion in control conditions, FIG. 18C, Blood.
Cell-monolayer integrity: Transmission light microscopy was routinely used to assess cell-monolayer integrity prior to each experiment. Before every experiment, each one of the endothelialized channels was inspected via light microscopy. Samples showing any sign of discontinuity in the endothelium were discarded. Vascular leakage assay as test for tissue integrity: The ability of cells to form a confluent monolayer was monitored for one week measuring vascular leakage of dextran (ThermoFisher). In order to measure vascular leakage the vascular channel was perfused with cell culture medium containing fluorescent dextran-cascade blue (3 kDa, ThermoFisher). The apical compartment was perfused with plain medium (without FBS). At various time points, the effluent from the chip was collected, and the relative fluorescence of the top and bottom compartments were measured using a standard plate reader. […] TNF-alpha Stimulation: In some experiment endothelial cells were stimulate with 50 ng/ml of TNF (Sigma) for 6 hours in order to induce vascular inflammation before blood perfusion. Experiments with Blood: Blood Samples And Endothelium: Citrated human blood (Research Blood Components, Cambridge, Mass.) was used within 4 hours of a blood draw in order to minimize pre-analytical effects on platelet function. Before every experiment, each one of the endothelialized channels (i.e. microchannels having an endothelial cell layer) was inspected via light microscopy. Samples showing any sign of discontinuity in the endothelium were discarded. […] USA) was at room temperature for 20 minutes. Cloning, Expression and Purification: Generation of IgG2σ was previously described (Vafa, O. et al. An engineered Fc variant of an IgG eliminates all immune effector functions via structural perturbations. Methods 65:114-126 (2014)). 5c8 human IgG1 and human IgG2-Sigma Fc variants were produced in Sino Biological Inc. Gene fragments encoding the 5c8 heavy and light chains were synthesized and cloned into mammalian expression vectors. DNA was produced and used in transient transfections with HEK293. Antibodies were purified using Protein A affinity chromatography and formulated in phosphate-buffered saline (DPBS), pH 7.4. Blood Pre-treatment and Perfusion: Formation of IC (preformed IC): Hu5C8, IgG2σ (control) (both provided by Janssen or provided as described herein) For studies with preformed IC, Hu5C8 or IgG2σ as an isotype control were combined with sCD40L (Tonbo Biosciences, San Diego, Calif.) in PBS, in a ratio of 1 molecule of sCD40L to 3000 molecules of antibody. After 20 minutes incubation at room temperature, the solution was diluted in a blood sample to reach the final concentration of 240 μg/ml (Hu5C8) and 10 ng/ml (sCD40L). […]

fibrin = experiment: Vessel-On-Chip blood perfusion: fibrin deposition by fluorescent fibrinogen imaging; details: for fibrin deposition on the endothelium compared to untreated blood: hu5C8 240 μg/mL, sCD40L 10 ng/ml, alone or combined, 4 donors, 60 μl/minute
Description: as §1, §2
Cell-monolayer integrity: Transmission light microscopy was routinely used to assess cell-monolayer integrity prior to each experiment. Before every experiment, each one of the endothelialized channels was inspected via light microscopy. Samples showing any sign of discontinuity in the endothelium were discarded. Vascular leakage assay as test for tissue integrity: The ability of cells to form a confluent monolayer was monitored for one week measuring vascular leakage of dextran (ThermoFisher). In order to measure vascular leakage the vascular channel was perfused with cell culture medium containing fluorescent dextran-cascade blue (3 kDa, ThermoFisher). The apical compartment was perfused with plain medium (without FBS). At various time points, the effluent from the chip was collected, and the relative fluorescence of the top and bottom compartments were measured using a standard plate reader. […] TNF-alpha Stimulation: In some experiment endothelial cells were stimulate with 50 ng/ml of TNF (Sigma) for 6 hours in order to induce vascular inflammation before blood perfusion. Experiments with Blood: Blood Samples And Endothelium: Citrated human blood (Research Blood Components, Cambridge, Mass.) was used within 4 hours of a blood draw in order to minimize pre-analytical effects on platelet function. Before every experiment, each one of the endothelialized channels (i.e. microchannels having an endothelial cell layer) was inspected via light microscopy. Samples showing any sign of discontinuity in the endothelium were discarded. […] USA) was at room temperature for 20 minutes. […]

[1] = test system: thrombin anti-thrombin complex (TAT); experiment: Thrombin anti-thrombin (TAT) ELISA in plasma from chip effluent; details: outflow samples; TNF-α pre-treatment of endothelium, or sCollagen or hu5C8/sCD40L in blood before perfusion
Description: Thrombin converts fibrinogen into fibrin during clot formation, and anti-thrombin plays a role in maintaining homeostasis by inhibiting the effect of thrombin. Formation of TAT in the microdevice confirms that local and intrinsic generation of thrombin, a potent platelet agonist, occurs in the model and that counter regulatory mechanisms for coagulation are retained. Thus, blood sampled from the Vessel-On-Chip was analyzed for thrombin anti-thrombin complex (TAT), an accepted clinical biomarker for procoagulation^48,49. […] An enzyme-linked immunosorbent assay (ELISA) was used to quantify the thrombin anti-thrombin complex (TAT).
Thrombin-Anti Thrombin (TAT) measurement via ELISA: Thrombin Anti-Thrombin (TAT) levels were analyzed in plasma from blood flowing out of the chip device by removing a sample from the outflow port. Thus TAT levels were evaluated in sample effluents collected from the outflow port of the chip using the Human TAT ELISA Kit (Siemens Healthineers) according to the user manual.
Blood sampled from the Vessel-On-Chip outflow port was analyzed for thrombin anti-thrombin complex (TAT), a factor released upon activation of the coagulation cascade and one of the biomarkers associated with thrombotic events occurring in patients affected with deep vein thrombosis (DVT) or SLE^45,46. […]

ICAM1 = ICAM1 immunostaining of endothelium on-chip; details: TNF-α 50 ng/ml, 6 hours
Excerpt: ICAM1 is shown with examples identified by white arrows. One example of a DAN stained nuclei is shown inside of a white circle.
Diverse structural characteristics of blood clots induced by the two experimental stimuli were captured via scanning electron microscopy (SEM) as colored images in FIG. 18D.

re-calcified blood = experiment: On-chip anticoagulation of outflowing re-calcified blood through the anticoagulant port; details: sodium citrate introduced through the anticoagulant port next to the outflow port
Excerpt: In order to functionally test the system, re-calcified blood was perfused through the inlet while anticoagulant, e.g. citrate buffer, was introduced online from the port situated next to the outflow port. Thus, blood obtained from the effluent of chips equipped with the anticoagulant port or without anticoagulant port were compared (FIG. 6). From a qualitative point of view the difference was striking.
In order to functionally test the additive channel (i.e. microfluidic chamber(s)) attached to the outflow port of a Vessel-On-Chip, re-calcified blood was perfused through the inlet port while citrate was introduced online from a port situated next to the outflow port, flowing through the additive channel. Thus, blood obtained from the effluent of chips equipped with the anticoagulant port (additive channel) or without anticoagulant port were compared (FIG. 6). From a qualitative point of view the difference was striking.

[2] = test system: hu5C8-mediated thrombosis; experiment: hu5C8-mediated thrombosis on-chip, FcγRIIa dependence (platelet coverage, fibrin deposition, TAT); details: with sCD40L 10 ng/ml, IV.3 1 μg/ml pre-block of FcγRIIa, or IgG2σ variant in place of hu5C8
Excerpt: Recent studies conducted on humanized mice expressing the human Fcγ receptors (FCGR2A) have shown that this receptor plays a role in thrombosis leading to the IC-mediated toxicity^12,16,21. […] In order to investigate if the IC5c8-induced thrombosis that we observed in our vessel-on-chip system also relies on an Fc-mediated mechanism, we used two different tool molecules: IgG2σ and IV.3 (FIG. 25A). The IgG2σ variant of hu5C8 has an engineered Fe region^48 that eliminates affinity for the FcγRIIa, while the monoclonal antibody IV.3 is a blocking antibody binding to FcγRIIa. Briefly, equimolar concentrations of IgG2σ or hu5c8 were incubated with 10 ng/ml of sCD40L for 20 minutes to form ICIgG2σ or IC5c8, respectively.
Some of the blood samples were treated with IV.3 (1 μg/ml) for 10 minutes to block the FcγRIIa, and then incubated for 20 more minutes with IC5c8. Finally, blood alone (control) or blood incubated with IC5c8, ICIgG2σ or IV.3 was perfused through the biomimetic microfluidic-on-chip for about 10 minutes. We tested 15 donors and all the tested conditions described above were tested in duplicates and analyzed as percentage of platelet coverage based on fluorescence microscopic imaging (FIG. 25B). Five of the donors were also tested for fibrin deposition (FIG. 25C). Finally, effluents plasma obtained from a total of 7 of the donors (including the 5 mentioned before) were used to assess TAT via ELISA (FIG. 25D). […]
Blood from several human donors were aliquoted into groups for the following treatments: controls (PBS), sCD40L, combined hu5C8/sCD40L, combined hu5C8 (IgG2σ)/sCD40L combined, and combined hu5C8/sCD40L/IV.3. Each condition was tested with a minimum of 3 donors to a maximum of 15 donors, and all conditions were tested in duplicates and analyzed for platelet coverage (FIG. 25B), fibrin deposition (FIG. 25C), or increased formation of TAT measured in the eluates (FIG. 25D). […]

[3] = TNF-α 50 ng/ml 6 hours endothelial pre-treatment or sCollagen 10 μg/ml in blood, vs blood alone

For “hu5C8: humanized monoclonal IgG1 antibody against CD40L (anti-CD154)”, the “platelet aggregate formation compared to untreated blood” value (platelets) was “no significant treatment-related effects” and the “fibrin deposition on the endothelium compared to untreated blood” value (fibrin) was “no significant treatment-related effects”.

For TNF-α, the “areas of platelet coverage” value (platelets; [3]) was “increased”, the fibrin signal intensity (fibrin; [3]) was “increased” and the “levels of TAT” value [1] was “significantly increased; also recorded: elevated”. For the same molecule, the “expression of ICAM1 in the endothelium compared to the control” value (ICAM1) was “increased expression”.

In the case of N=C(N)NCCCC[C@@H]1NC(=O)CCSSC[C@@H](C(N)=O)NC(=O)[C@@H]2CCCN2C(=O)[C@H](Cc2c[nH]c3ccccc23)NC(=O)[C@H](CC(=O)O)NC(=O)CNC1=O [Eptifibatide] ([Mpa][hArg]GDWPC-NH2; disulfide 1-7), the “effects of pro-thrombotic conditions (TNF-α, sCollagen) on platelet coverage and fibrin deposition” value (platelets; adding Eptifibatide, n=4 donors (FIG. 18E)) is reported as “suppressed” and the “fibrin signal (image analysis)” value (fibrin; Eptifibatide 2 ug/ml, samples treated with TNF-α, n=4) is reported as “still detectable”.

With “sCD40L: soluble CD40 ligand; recombinant human sCD40 Ligand” the “platelet aggregate formation compared to untreated blood” value (platelets) was “no significant treatment-related effects”, the “increase in platelet coverage over untreated control, some donors” value (platelets; sCD40L alone, Example 5) was “about 2 fold” and the “mean increase in platelet coverage compared to controls” value (platelets; sCD40L alone, Example 5) was “not statistically significant”. The “fibrin deposition on the endothelium compared to untreated blood” value (fibrin) was “no significant treatment-related effects”.

O=C(O)CC(O)(CC(=O)O)C(=O)O [sodium citrate] was tested, and the “state of blood collected at the end of each experiment” value (re-calcified blood) was “soluble (not clotted)”.

B1: hu5C8 (IgG2σ): IgG2σ variant of hu5C8 with engineered Fc region that eliminates affinity for FcγRIIa (antibody, chains of the INN, looked up, V domains shown)
VH: QVQLVQSGAEVVKPGASVKLSCKASGYIFTSYYMYWVKQAPGQGLEWIGEINPSNGDTNFNEKFKSKATLTVDKSASTAYMELSSLRSEDTAVYYCTRSDGRNDMDSWGQGTLVTVSS
VL: DIVLTQSPATLSVSPGERATISCRASQRVSSSTYSYMHWYQQKPGQPPKLLIKYASNLESGVPARFSGSGSGTDFTLTISSVEPEDFATYYCQHSWEIPPTFGGGTKLEIK
modifications: IgG2σ engineered Fc lacking FcγRIIa binding
With B1 the “hu5C8-mediated thrombosis on-chip (platelet coverage, fibrin deposition, TAT)” value (from here on “hu5C8-mediated thrombosis on-chip”) [2] was “did not show signs of thrombosis”, the “hu5C8-mediated thrombosis on-chip” value ([2]; listed as IgG2σ) was “suppressed” and the “hu5C8-mediated thrombosis on-chip” value ([2]; listed as hu5C8-IgG2σ) was “not detected”.
